IC50 data for five compounds are collected here from US8791264B2 (Purdue Pharma L.P., priority 2006, dated 2014).

In test [1] the target is T1, N-type calcium channel (NTCC) (Homo sapiens, UniProt Q00975).
T1 construct: host or cells: IMR32 cells differentiated with dibutyryl cAMP and bromodeoxyuridine
Nature of the test: FLIPR calcium mobilization assay for N-type calcium channel. The test is classed as cell-based. Particulars: calcium mobilization in vitro assay; differentiated IMR32 cells. The gist of the method:
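Differentiated IMR32 cells (8 days, dibutyryl cAMP and BrdU) loaded with 3 μM Fluo-4 during 90 mM KCl pre-stimulation, with compound at about 846 pM to 17 μM plus 5 μM nitrendipine. After washes in compound, FLIPR read basal fluorescence 315 s, then 45 s after KCl addition (final 90 mM).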
In general terms: Calcium flux is commonly read through the fluorescence of an indicator in the cells.

The target in test [2] is T2, recombinant rat L-type calcium channel (LTCC) subunits (α1c, α2δ, and β1) (Rattus norvegicus, UniProt P22002).
T2 construct: expressed in transfected cells
T2 sequence (P22002 whole entry): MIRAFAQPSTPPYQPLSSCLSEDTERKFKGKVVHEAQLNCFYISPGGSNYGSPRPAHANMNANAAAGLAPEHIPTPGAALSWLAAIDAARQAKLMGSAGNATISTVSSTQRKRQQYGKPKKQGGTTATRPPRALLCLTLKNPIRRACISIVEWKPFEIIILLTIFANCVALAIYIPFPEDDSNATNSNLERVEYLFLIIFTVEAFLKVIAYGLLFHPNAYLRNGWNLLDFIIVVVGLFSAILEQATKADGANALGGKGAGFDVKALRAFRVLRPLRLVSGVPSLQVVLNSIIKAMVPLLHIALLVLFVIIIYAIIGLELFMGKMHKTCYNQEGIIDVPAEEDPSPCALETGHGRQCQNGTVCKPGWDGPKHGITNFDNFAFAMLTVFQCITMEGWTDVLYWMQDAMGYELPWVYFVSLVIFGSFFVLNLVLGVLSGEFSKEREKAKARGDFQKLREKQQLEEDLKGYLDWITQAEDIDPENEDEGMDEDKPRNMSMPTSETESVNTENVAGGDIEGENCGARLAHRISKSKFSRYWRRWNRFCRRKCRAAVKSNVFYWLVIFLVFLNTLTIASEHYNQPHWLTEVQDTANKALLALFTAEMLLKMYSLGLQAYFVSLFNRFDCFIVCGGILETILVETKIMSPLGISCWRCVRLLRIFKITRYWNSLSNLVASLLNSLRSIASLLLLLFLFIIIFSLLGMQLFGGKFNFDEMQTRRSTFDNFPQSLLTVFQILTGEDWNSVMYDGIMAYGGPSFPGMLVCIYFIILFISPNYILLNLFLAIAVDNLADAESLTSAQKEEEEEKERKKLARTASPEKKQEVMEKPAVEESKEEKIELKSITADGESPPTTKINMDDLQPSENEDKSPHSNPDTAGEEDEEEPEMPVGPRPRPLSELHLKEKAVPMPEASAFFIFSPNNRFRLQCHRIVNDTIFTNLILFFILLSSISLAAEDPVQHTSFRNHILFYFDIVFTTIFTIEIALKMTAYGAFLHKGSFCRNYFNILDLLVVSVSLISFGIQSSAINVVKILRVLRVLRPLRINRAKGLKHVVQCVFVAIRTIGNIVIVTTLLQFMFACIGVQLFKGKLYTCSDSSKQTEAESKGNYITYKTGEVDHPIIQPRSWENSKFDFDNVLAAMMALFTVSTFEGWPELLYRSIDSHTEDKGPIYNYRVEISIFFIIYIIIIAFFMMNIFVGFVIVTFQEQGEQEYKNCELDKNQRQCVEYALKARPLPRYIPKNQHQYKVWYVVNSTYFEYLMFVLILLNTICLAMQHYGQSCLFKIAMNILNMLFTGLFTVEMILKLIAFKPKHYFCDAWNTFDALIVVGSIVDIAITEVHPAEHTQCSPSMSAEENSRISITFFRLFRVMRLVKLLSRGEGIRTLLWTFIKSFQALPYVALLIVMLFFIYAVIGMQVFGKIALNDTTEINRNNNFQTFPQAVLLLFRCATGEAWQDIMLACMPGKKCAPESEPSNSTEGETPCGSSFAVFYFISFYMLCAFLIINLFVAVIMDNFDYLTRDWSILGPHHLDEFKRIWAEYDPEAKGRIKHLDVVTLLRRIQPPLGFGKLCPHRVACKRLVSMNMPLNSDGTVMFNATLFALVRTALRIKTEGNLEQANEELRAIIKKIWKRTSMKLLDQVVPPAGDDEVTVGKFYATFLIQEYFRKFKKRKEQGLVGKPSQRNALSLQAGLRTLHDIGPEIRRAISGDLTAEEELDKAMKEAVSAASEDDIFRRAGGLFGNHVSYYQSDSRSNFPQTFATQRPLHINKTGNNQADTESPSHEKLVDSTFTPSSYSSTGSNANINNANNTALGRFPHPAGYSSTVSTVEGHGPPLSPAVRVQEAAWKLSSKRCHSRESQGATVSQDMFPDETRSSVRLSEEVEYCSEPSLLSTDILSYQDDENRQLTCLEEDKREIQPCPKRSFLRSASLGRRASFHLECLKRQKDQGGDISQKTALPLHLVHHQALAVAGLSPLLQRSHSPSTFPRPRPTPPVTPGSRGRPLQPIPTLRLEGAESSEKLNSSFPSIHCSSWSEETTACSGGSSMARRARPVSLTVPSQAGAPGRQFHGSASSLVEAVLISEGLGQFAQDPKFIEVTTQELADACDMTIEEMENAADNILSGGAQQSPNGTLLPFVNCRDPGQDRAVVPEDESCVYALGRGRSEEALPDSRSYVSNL
T2 sequence (P54290 25-944 partner limits assumed): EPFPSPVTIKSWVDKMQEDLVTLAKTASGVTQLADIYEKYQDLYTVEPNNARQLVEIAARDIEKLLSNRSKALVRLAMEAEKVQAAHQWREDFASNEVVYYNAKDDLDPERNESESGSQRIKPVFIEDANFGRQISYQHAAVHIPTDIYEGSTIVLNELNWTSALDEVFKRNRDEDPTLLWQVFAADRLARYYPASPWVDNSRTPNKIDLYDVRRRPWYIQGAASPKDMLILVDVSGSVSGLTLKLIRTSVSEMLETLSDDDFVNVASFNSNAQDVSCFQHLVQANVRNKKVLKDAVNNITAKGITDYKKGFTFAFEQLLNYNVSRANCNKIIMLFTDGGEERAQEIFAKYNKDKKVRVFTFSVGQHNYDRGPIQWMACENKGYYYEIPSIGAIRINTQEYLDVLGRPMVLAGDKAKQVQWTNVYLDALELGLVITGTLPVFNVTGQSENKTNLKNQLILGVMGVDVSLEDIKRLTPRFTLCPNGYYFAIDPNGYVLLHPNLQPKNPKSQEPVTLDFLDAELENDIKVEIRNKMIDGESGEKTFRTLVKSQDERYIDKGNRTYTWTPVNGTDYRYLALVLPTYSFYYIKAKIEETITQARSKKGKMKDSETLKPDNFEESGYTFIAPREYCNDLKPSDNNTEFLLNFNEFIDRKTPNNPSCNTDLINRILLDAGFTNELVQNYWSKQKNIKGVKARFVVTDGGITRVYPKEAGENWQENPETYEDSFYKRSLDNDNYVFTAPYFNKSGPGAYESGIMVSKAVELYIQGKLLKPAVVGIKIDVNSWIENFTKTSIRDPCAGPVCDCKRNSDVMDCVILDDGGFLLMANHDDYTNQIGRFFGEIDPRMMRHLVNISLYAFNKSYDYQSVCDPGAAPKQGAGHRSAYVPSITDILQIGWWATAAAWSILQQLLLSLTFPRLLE
T2 sequence (P54290 945-1091 partner limits assumed): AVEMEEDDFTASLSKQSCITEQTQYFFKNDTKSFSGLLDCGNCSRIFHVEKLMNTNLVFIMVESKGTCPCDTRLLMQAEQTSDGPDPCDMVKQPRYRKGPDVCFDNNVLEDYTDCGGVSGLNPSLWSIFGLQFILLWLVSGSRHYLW
T2 sequence (P54283 whole entry partner): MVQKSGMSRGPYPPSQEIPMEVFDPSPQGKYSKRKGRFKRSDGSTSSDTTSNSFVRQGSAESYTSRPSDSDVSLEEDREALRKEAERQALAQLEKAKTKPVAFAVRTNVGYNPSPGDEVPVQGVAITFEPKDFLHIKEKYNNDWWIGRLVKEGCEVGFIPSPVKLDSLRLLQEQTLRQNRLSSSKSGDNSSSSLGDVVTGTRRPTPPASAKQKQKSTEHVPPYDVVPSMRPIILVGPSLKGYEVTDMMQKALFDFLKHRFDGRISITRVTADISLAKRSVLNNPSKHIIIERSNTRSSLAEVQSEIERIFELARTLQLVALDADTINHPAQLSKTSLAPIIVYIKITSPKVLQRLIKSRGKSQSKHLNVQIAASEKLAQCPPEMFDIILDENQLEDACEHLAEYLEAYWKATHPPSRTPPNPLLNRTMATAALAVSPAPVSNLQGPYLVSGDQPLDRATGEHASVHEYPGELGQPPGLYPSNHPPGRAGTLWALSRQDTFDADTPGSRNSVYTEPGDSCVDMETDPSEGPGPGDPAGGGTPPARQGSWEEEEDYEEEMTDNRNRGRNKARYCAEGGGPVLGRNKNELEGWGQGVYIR
Nature of the test: FLIPR calcium mobilization assay for L-type calcium channel. The class given is cell-based. Particulars: calcium mobilization in vitro assay; HEK293 cells expressing rat LTCC. The gist of the method:
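HEK293 cells stably expressing rat LTCC (α1c, α2δ, β1), Fluo-4 loaded in pH 7.4 buffer with 5 mM CaCl2. Compound (about 846 pM to 17 μM final) applied 5 minutes before depolarization with 90 mM KCl final; FLIPR fluorescence recorded throughout.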

pIC50: −log10 of the molar value. A value given as a limit tells only on which side of the number the result lay.

As a reminder, the pIC50 is the negative decadic logarithm of the IC50, by convention in mol/L. Turning to `CC(C)N(C1CCN(C(=O)CN(CCO)Cc2ccccc2)CC1)S(=O)(=O)c1cccc(C(F)(F)F)c1` [Compound 103, N-(1-{2-[Benzyl-(2-hydroxyethyl)-amino]acetyl}-piperidin-4-yl)-N-isopropyl-3-trifluoromethylbenzenesulfonamide], the pIC50 is 6.15 in test [1] and 5.11 in test [2].

For `O=C(CN1CCC(N(C2CC2)S(=O)(=O)c2cccc(C(F)(F)F)c2)CC1)Nc1ccc(C(F)(F)F)cc1` [Compound 55, 2-{4-[Cyclopropyl-(3-trifluoromethylbenzenesulfonyl)amino]-piperidin-1-yl}-N-(4-trifluoromethylphenyl)acetamide], the pIC50 in test [1] was 6.14; in test [2], less than 4.70.

Turning to `CC(C)N(C1CCN(C(=O)CCNc2ccc(F)cc2Cl)CC1)S(=O)(=O)c1cccc(C(F)(F)F)c1` [N-{1-[3-(2-chloro-4-fluoro-phenylamino)-propionyl]-piperidin-4-yl}-N-isopropyl-3-trifluoromethyl-benzenesulfonamide], the pIC50 in test [1] is 6.09; in test [2], less than 4.70.

As to `CN(C1CCN(CC(=O)Nc2ccc(C(F)(F)F)cc2)CC1)S(=O)(=O)c1cccc(C(F)(F)F)c1` [Compound 60, 2-{4-[Methyl-(3-trifluoromethylbenzenesulfonyl)-amino]-piperidin-1-yl}-N-(4-trifluoromethylphenyl)acetamide], the pIC50 in test [1] was 6.00; in test [2] it was less than 4.70.

As to `COc1ccc(OC)c(NCCC(=O)N2CCC(N(C(C)C)S(=O)(=O)c3cccc(C(F)(F)F)c3)CC2)c1` [N-{1-[3-(2,5-dimethoxy-phenylamino)-propionyl]-piperidin-4-yl}-N-isopropyl-3-trifluoromethyl-benzenesulfonamide], the pIC50 in test [1] was 6.12; in test [2], less than 4.70.
